Legend:
Format in all cases: in vivo
[1] = tested on: cherry tomato (Suncherry Pure); test: Amino acid analysis of tomato fruit obtained with sprinkling of Ile or Pro
Procedure: After the plants of four root clumps uniformly grew, and flower buds began to appear, water (Con.), 10 mM L-isoleucine aqueous solution (Ile), or 10 mM proline aqueous solution (Pro) was sprinkled on the whole plants once a week. The sprinkled volume was adjusted in accordance with the growth of the plants, and it was 15 to 30 mL per one root clump.
Mature fruit were taken from each of the cherry tomato plants sprinkled with water, Ile, or Pro, and the amino acid content was analyzed for each. Two pieces of fruit were taken from the flower cluster of the second tier of one root clump, that is, a total of 8 pieces of fruit were taken for each test group. Fruit juice was pressed out of each piece of fruit, and the fruit juice was diluted 10 times with 0.02 N HCl, and subjected to filter filtration. The amino acids contained in the obtained filtrate were measured. Measurement of the amino acids was performed with High Speed Amino Acid Analyzer L-8800 (Hitachi) according to the manual of this instrument. The amounts of the amino acids (μmol/mL) in each fruit juice filtrate were calculated, and the averages for eight pieces of fruit were used as the amino acid amounts of the corresponding test group.

[2] = tested on: tomato fruit (Suncherry Pure); test: Coloring and carotenoid content of harvested immature tomato fruit sprinkled with Ile
Procedure: Then, the beakers were closed with plastic wrap, and left for 5 hours; then the wrap was removed, and the fruit were left as they were. The test was performed at room temperature, and the sprinkling of water and Ile solution was performed twice in total at an interval of one week. […] The tomato fruit of which seeds were removed were frozen with liquid nitrogen, and ground in a mortar. […] The extraction mixture was centrifuged for 5 minutes (8000 rpm), and the chloroform layer as the lower layer was transferred to a new tube. Chloroform (0.5 mL) was added again to the former tube, extraction was performed in the same manner, and the chloroform layer was fully taken out, and transferred to the latter tube containing the aforementioned chloroform extract. Then, chloroform was evaporated from the obtained extract by using a centrifugal evaporator. Then, a sample solution was prepared by adding 0.5 mL of chloroform to the residue to dissolve it, and carotenoids contained in the sample solution were analyzed. For the measurement of carotenoids, the extraction sample was diluted 100 times with chloroform, and absorbance thereof was measured at the extinction wavelength of carotenoids (480 nm) by using DU800 Spectrophotometer (Beckman Coulter).

LOX and Psy genes = test: Gene expression in pepper (Anaheim) sprinkled with Ile; details: 10 mM Ile once a week, compared to Con.
Procedure: A 10 mM isoleucine aqueous solution (Ile) was sprinkled on pepper plants (variety, Anaheim), which also belong to the family Solanaceae, like tomato, and gene expression analysis was performed. The pepper plants were cultivated in a greenhouse in the same manner as described in Example 2. Ile was sprinkled once a week, and after the second sprinkling, leaves were collected from the pepper plants. RNA extraction, cDNA synthesis, and real-time PCR were performed in the same manner as described in Example 5 to analyze gene expression. Expression of the LOX gene was analyzed by using leaves collected 3 hours after the second sprinkling, and expression of the Psy gene was analyzed by using leaves collected 24 hours after the second sprinkling.

[3] = tested on: middle size fruit-bearing tomato (Tsukutsuku-shi); test: Ripening and harvestable bunch number of middle size fruit-bearing tomato (Tsukutsuku-shi); details: 3 mM Ile + 0.2% Squash
Procedure: For the test, middle size fruit-bearing tomato plants in the second half of their growth (variety, Tsukutsuku-shi) that were cultivated in a greenhouse and bore fruit of the 12th tier were used. Neighboring 12 root clumps of the tomato plants were selected, 6 root clumps of them were used for control group receiving no treatment, and the other 6 root clumps were used for the Ile treatment group. […] The total volume of the solution sprinkled on the plants of 6 root clumps was 600 ml. After the treatment, the change in color of tomatoes was confirmed and harvested from each bunch on 11th, […], and 27th days. When substantially all the fruit colored (ripened), or many fruit were ready to overmature, that is, when the top of the fruit was still green, the fruit were harvested. The numbers of bunches harvested on the 11th day after the treatment were 3 for the no treatment group, and 7 for the Ile treatment group. The numbers of bunches harvested on the 18th day after the treatment were 4 for the no treatment group, and 3 for the Ile treatment group.

[4] = fruit juice, plants sprinkled with 10 mM solution once a week, average of 8 fruit

For CC[C@H](C)[C@H](N)C(=O)O [Ile, L-isoleucine], the “many kinds of essential amino acids including branched chain amino acids and aromatic amino acids in fruit” value ([1]; 10 mM sprinkled once a week, compared to control) was “increased”, the “Ala in fruit juice” value [1, 4] was 4.51 µmol/mL and the “Arg in fruit juice” value [1, 4] was 0.14 µmol/mL. The “Asn in fruit juice” value [1, 4] was 0.55 µmol/mL, the “Asp in fruit juice” value [1, 4] was 1.33 µmol/mL and the “Cys in fruit juice” value [1, 4] was 0.21 µmol/mL. The “Gln in fruit juice” value [1, 4] was 1.1 µmol/mL, the “Glu in fruit juice” value [1, 4] was 6.46 µmol/mL and the “Gly in fruit juice” value [1, 4] was 0.35 µmol/mL. For the same molecule, the “His in fruit juice” value [1, 4] was 0.19 µmol/mL, the “Ile in fruit juice” value [1, 4] was 0.23 µmol/mL and the “Leu in fruit juice” value [1, 4] was 0.39 µmol/mL. For the same molecule, the “Lys in fruit juice” value [1, 4] was 0.33 µmol/mL, the “Met in fruit juice” value [1, 4] was 0.09 µmol/mL and the “Phe in fruit juice” value [1, 4] was 0.5 µmol/mL. For the same molecule, the “Pro in fruit juice” value [1, 4] was 0.33 µmol/mL, the “Ser in fruit juice” value [1, 4] was 0.67 µmol/mL and the “Thr in fruit juice” value [1, 4] was 0.3 µmol/mL. The “Total amino acids in fruit juice” value [1, 4] was 20.25 µmol/mL, the “Trp in fruit juice” value [1, 4] was 0.06 µmol/mL and the “Tyr in fruit juice” value [1, 4] was 0.082 µmol/mL. For the same molecule, the “Val in fruit juice” value [1, 4] was 0.21 µmol/mL, the “γ-ABA in fruit juice” value [1, 4] was 6.42 µmol/mL and the “color of harvested fruit around the 27th day” value ([2]; 10 mM Ile, 1 mL on six immature fruit, twice at an interval of one week, room temperature, water control still green) was “began to turn color”. For the same molecule, the “color of harvested fruit around the 34th day” value ([2]; 10 mM Ile, sprinkled twice, water control still half-mature orange) was “turned color to a fully mature red”, the “carotenoid content of the tomato fruit” value ([2]; around the 27th day, absorbance at 480 nm, compared to fruit treated with water) was “higher” and the “Expression of the LOX gene” value (LOX and Psy genes; leaves 3 hours after the second sprinkling) was “higher”. The “Expression of the Psy gene” value (LOX and Psy genes; leaves 24 hours after the second sprinkling) was “higher”, the “number of bunches harvested on the 11th day after the treatment” value ([3]; 10 labeled bunches, no treatment group: 3) was 7 and the “number of bunches harvested on the 27th day after the treatment” value ([3]; no treatment group: 3) was 1. The “number of bunches harvested on the 18th day after the treatment” value ([3]; no treatment group: 4) was 3, the “number of immature (unripened, green) fruits among the harvested fruit of 10 bunches” value ([3]; no treatment group: 15 of 85) was 8 and the “total harvested fruit of 10 bunches” value ([3]; no treatment group: 85) was 86.

— patent US10226044B2, “Agricultural and horticultural composition and method for cultivating plant” (AJINOMOTO CO., INC., priority 2014, dated 2019)
